{
  "source": "patent US20250002974A1",
  "about": "“PROTECTING FULLY FUNCTIONAL NUCLEOTIDES FROM DEGRADATION” (Illumina, Inc., priority 2023, published 2025)",
  "key": {"[1]": {"test": "lyophilized ffN cakes with 30 mM cationic additive staged at 60° C. for 3 days, diphosphate by HPLC", "type": "physicochemical", "conditions": "30 mM additive, 60° C. 3 days", "procedure": "FIG. 12 provides data showing the percent diphosphate ffC detected via HLPC after staging for 60° C. for 3 days (3D) in the presence of 30 mM imidazolium additive (lyophilized cakes; n=2; CTRL=control sample with no additive).\nFIG. 13 provides data showing the percent diphosphate ffC detected via HLPC after staging for 60° C. for 3 days (3D) in the presence of 30 mM pyridinium additives (lyophilized cakes; n=2; CTRL=control with no additive).\nFIG. 14 provides data showing the percent diphosphate ffC detected via HLPC after staging for 60° C. for 3 days (3D) in the presence of 30 mM quaternary additives (lyophilized cakes; n=2; CTRL=control with no additive).\nThe efficacies of the other cationic substrates were also tested. This was performed using lyophilized ffN cake samples that were formulated with and without said additives, and by staging at an arbitrarily selected stress condition of 60° C. for a period of 3 days."}, "[2]": {"test": "ffN stability staged with surfactants in solution, 45° C. 7 days", "type": "physicochemical", "conditions": "45° C. for 7 days, solution format", "procedure": "Each of the surfactants was tested at two different concentrations, 0.5% and 2%."}, "[3]": {"test": "stability of ffNs in dry state (TBMACL) or liquid state (CHAPS)", "type": "physicochemical", "source_text": "FIG. 24 provides data showing that addition of the cationic compound Tributylmethylammonium chloride (TBMACL) to ffNs in a dry state increases stability of triphosphate on the ffNs.\nFIG. 25 provides data showing that the addition of CHAPS as well as CHAPS and TBMACL to ffNs in a liquid state increases the stability of intact ffNs."}, "[4]": {"test": "ffNs stored with CHAPS at 45° C. for 7 or 21 days, percent peak area retention", "type": "physicochemical", "procedure": "CHAPS was tested to determine if it prevented degradation of ffNs as the level of heat stress increased. In one of the reaction conditions ffNs were stored with CHAPS for 7 days at 45° C., and the other reaction condition ffNs were stored with CHAPs for 21 days at 45° C."}, "[5]": {"test": "ffN stress test with or without 10 mM DADMAC, purity by HPLC peak area percent", "type": "physicochemical", "procedure": "DADMAC (diallyldimethylammonium chloride): 100 μM ffNs were stressed in the presence of 10 mM DADMAC (FIG. 19) in 15 mM 3-(N-morpholino)propanesulfonic acid (MOPS) buffer and 5× glycine buffer (250 mM glycine pH 9.9, 250 mM NaCl, 5 mM ethylediaminetetraacetic acid (EDTA)). Each type of ffNs were tested: ffA, ffC, ffT, and ffG.\nThe samples were staged for 2 days at 40° C. in the glycine buffer, 2 days at 65° C. and 7 days at 4° C. in the MOPS buffer. DADMAC was tested to see if it could be added to the incorporation mix or ffN mixtures without causing any negative interactions with ffNs."}, "[6]": {"test": "ffNs stored with TBMACL for 35 days at 35° C. or 45° C., diphosphate production", "type": "physicochemical", "procedure": "TBMACL was tested to determine if it provided protection to the triphosphate of ffNs as heat stress increased. ffNs were stored with TBMACL for 35 days. In one of the storage conditions, the temperature was 35° C. and in the other storage condition, the temperature was 45° C. […] At 35° C. for 35 days TBMACL caused a 10% reduction in diphosphate production. This can be compared to 45° C. for 35 days where TBMACL caused a 17% reduction in diphosphate production."}, "Arthrobacter russicus": {"tested_on": "Arthrobacter russicus", "test": "bacterial growth in incorporation mix with TBMACL titration, plating for CFU/ml", "type": "cell-based", "procedure": "To confirm the biocidal effect of TBMACl within liquid sequencing reagents, a titration of TBMACL from 9 mM to 90 mM in incorporation mix was prepared. These experiments were carried out with the omission of polymerase and ffNs in the formulation, as they were not required for the further analysis. On day 0, samples were inoculated with 3×10^6 CFU/ml of the bacteria Arthrobacter russicus. The samples were staged at 12° C. for 0, 14 and 30 days, followed by plating to determine CFU/ml. FIGS. 26-27 provide data showing use of a bulky cationic compound to inhibit bacterial growth. More specifically, FIG. 26 illustrates A. russicus growth in a titration of TBMACL over 30 days at 12° C.; the data shown is on a linear Y axis. FIG. 27 illustrates the same data, with a logarithmic scale Y axis. It may be understood from FIGS. 26-27 that the greater the concentration of TBMACL, the greater the inhibition of bacterial growth. […] In the absence of TBMACL, the CFU/ml increase by about 1.8-fold over 30 days. […] The sample with 90 mM TBMACL appeared to kill essentially all bacteria by day 14, and all bacteria appeared to remain dead at day 30."}, "[7]": {"conditions": "1 to 40 mM TBACL; 45° C. 7 days; solution format", "excerpt": "As such, even higher concentrations of cations were not pursued."}},
  "data": [
    {"smiles": "CCCC[n+]1ccccc1.[Br-]", "note": "[BPB, 1-butylpyridinium bromide]", "values": [
      {"measurement": "reduction in diphosphate ffN formed vs control without additive", "setting": "[1]", "result": "approximately 17%"}
    ]},
    {"smiles": "CC[n+]1ccc(C(=O)OC)cc1.[I-]", "note": "[EMPI, 1-ethyl-4-(methoxycarbonyl)pyridinium iodide]", "values": [
      {"measurement": "effect on triphosphate stability / diphosphate formation", "setting": "[1]", "result": "negatively impacted triphosphate stability"}
    ]},
    {"smiles": "C[C@H](CCC(=O)NCCC[N+](C)(C)CCCS(=O)(=O)[O-])[C@H]1CC[C@H]2[C@@H]3[C@H](O)C[C@@H]4C[C@H](O)CC[C@]4(C)[C@H]3C[C@H](O)[C@]12C", "note": "[CHAPS, 3-[(3-cholamidopropyl)dimethylammonio]-1-propanesulfonate]", "values": [
      {"measurement": "increase in ffN retention against the control sample", "setting": "[2]", "result": "~40", "unit": "%"},
      {"measurement": "stability of triphosphate species of ffNs", "setting": "[3]; ffNs in a liquid state", "result": "increased the stability of trisphosphate species"},
      {"measurement": "improvement in percent peak area retention", "setting": "[4]; 7 days at 45° C.", "result": 27, "unit": "%"},
      {"measurement": "improvement in percent PA retention", "setting": "[4]; 21 days at 45° C.", "result": 113, "unit": "%"}
    ]},
    {"smiles": "C=CC[N+](C)(C)CC=C.[Cl-]", "note": "[DADMAC, diallyldimethylammonium chloride]", "values": [
      {"measurement": "effect of DADMAC on ffN purity and diphosphate", "setting": "[5]; high temperatures, all 4 ffNs", "result": "higher % ffN purity as compared to control and lower levels of diphosphate"},
      {"measurement": "effect of DADMAC on ffNs", "setting": "[5]; milder stress conditions", "result": "no negative effect"}
    ]},
    {"smiles": "Cl.N", "note": "[ACL, ammonium chloride]", "values": [
      {"measurement": "effect on triphosphate stability / diphosphate formation", "setting": "[1]", "result": "higher level of diphosphate formation"}
    ]},
    {"smiles": "CCCC[N+](C)(CCCC)CCCC.[Cl-]", "note": "[TBMACL, tributylmethylammonium chloride]", "values": [
      {"measurement": "reduction in diphosphate ffN formed vs control without additive", "setting": "[1]", "result": "≤ 23", "unit": "%"},
      {"measurement": "stability of triphosphate species of ffNs", "setting": "[3]; ffNs in a dry state", "result": "increased stability of the trisphosphate species"},
      {"measurement": "reduction in diphosphate production", "setting": "[6]; 35° C. for 35 days", "result": 10, "unit": "%"},
      {"measurement": "reduction in diphosphate production", "setting": "[6]; 45° C. for 35 days", "result": 17, "unit": "%"},
      {"measurement": "effect on bioburden load (CFU/ml)", "setting": "Arthrobacter russicus; 9 mM TBMACL, 30 days at 12° C.", "result": "approximately static effect"},
      {"measurement": "reduction of CFU/ml", "setting": "Arthrobacter russicus; 22.5 mM TBMACL, 30 days at 12° C.", "result": 6, "unit": "fold"},
      {"measurement": "reduction of CFU/ml", "setting": "Arthrobacter russicus; 45 mM TBMACL, 30 days at 12° C.", "result": 8.6, "unit": "fold"},
      {"measurement": "reduction of CFU/ml", "setting": "Arthrobacter russicus; 90 mM TBMACL, 30 days at 12° C.", "result": "about 78,000 fold"},
      {"measurement": "biocidal effect on bacterial growth", "setting": "Arthrobacter russicus; titration 9 mM to 90 mM in incorporation mix", "result": "dose-dependent biocidal effect"}
    ]},
    {"smiles": "CCCC[N+](CCCC)(CCCC)CCCC.[Cl-]", "note": "[TBACL, tetrabutylammonium chloride]", "values": [
      {"measurement": "dephosphorylation (percent diphosphate ffC)", "setting": "[7]", "result": "reduced dephosphorylation"}
    ]}
  ]
}
